Data taken from patent publication US20200038514A1, “FOLATE CONJUGATE FOR USE IN TARGETING TUMOR ASSOCIATED MACROPHAGES” (ENDOCYTE, INC., priority 2016, published 2020).

What was measured:
[1] = test system: KB-CR2000 (platin resistant) tumor; assay: In vivo activity against platinum resistant tumors; set-up: species or system mice; conditions: Conjugate 5 0.5 μmol/kg SIW two weeks; EC1456 2.0 μmol/kg BIW two weeks; n=4
Protocol: (§1) Mice were maintained and tumor volumes were measures according to Method 3.
KB-CR2000 (platin resistant) tumor cells were inoculated subcutaneously at the right flank of each mouse. Mice were dosed through the lateral tail vein under sterile conditions in a volume of […] of phosphate-buffered saline (PBS).

4T1 TAMs = assay: Activity against 4T1 TAMs in vivo (FACS of tumors); set-up: species or system rats
Source text: Female Foxn1^nu nude rats (Harlan, Inc., Indianapolis, Ind.) on a folate-deficient diet were subcutaneously implanted with 1×10^6 4 T1 tumor cells in the mammary region. When the tumors reached ˜1088 mm^3, the animals (n=3) were intravenously dosed with nothing (Control), 254 nmol/kg of Conjugate 5, 254 nmol/kg of Conjugate 5 plus 127 μmol/kg of EC0923, or 127 μmol/kg of EC0923. Four days later, the entire tumors were harvested, enzymatically digested, and subjected to FACS analysis. The tumor cell suspensions were stained for macrophage markers (CD163, CD11b), cell viability (propidium iodide), and late and early apoptosis (Annexin V).

Calf thymus DNA (CT-DNA) = assay: DNA crosslinking assay (ethidium bromide fluorescence); format: biochemical; conditions: 1.1 to 75 μM, 37° C. 2 hours
Protocol: Calf thymus DNA (CT-DNA) was combined with increasing concentrations of Conjugate 5 (1.1 to 75 μM) or Conjugate 5+/−DTT. These solutions were incubated at 37° C. for 2 hours. The solutions were then mixed with ethidium bromide and incubated for 2 hours at room temperature. Fluorescence (Ex: 535 nm, Em: 605 nm) from these samples was measured on the Fluoroskan II fluorimeter. Next, the samples were heated to 104° C. for 5 minutes, cooled on ice for 5 minutes, kept at RT for 15 minutes and fluorescence measured. % crosslinking of each sample was calculated using the fluorescence values from the positive and negative controls.

folate receptor = target: T1, folate receptor (Homo sapiens, UniProt P15328); assay: Relative affinity assay ([3H]FA displacement on KB cells); format: binding
T1 construct: FR-positive KB cells were seeded in 24-well Falcon plates and allowed to form adherent monolayers; endogenous in cells; host or cells: KB cells
T1 sequence (P15328 25-234): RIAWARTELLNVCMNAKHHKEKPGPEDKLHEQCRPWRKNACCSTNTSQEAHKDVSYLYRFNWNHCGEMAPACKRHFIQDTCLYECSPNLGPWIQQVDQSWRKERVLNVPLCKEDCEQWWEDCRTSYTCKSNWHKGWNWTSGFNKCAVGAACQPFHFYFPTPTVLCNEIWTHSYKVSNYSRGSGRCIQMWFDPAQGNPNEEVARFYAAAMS
Protocol: FR-positive KB cells were seeded in 24-well Falcon plates and allowed to form adherent monolayers (>90% confluent) overnight in FFRPMI/HIFCS. Spent incubation medium was replaced with FFRPMI supplemented with 10% HIFCS and containing 100 nmol/L of [^3H]FA in the absence and presence of increasing concentrations of unlabeled FA or the test conjugate. Cells were incubated for 1 hour at 37° C. and then rinsed thrice with 0.5 mL PBS. Five hundred microliters of 1% SDS in PBS were added to each well; after 5 min, cell lysates were collected, transferred to individual vials containing 5 mL of scintillation cocktail, and then counted for radioactivity.
Cells exposed to only the [^3H]FA in FFRPMI (no competitor) were designated as negative controls, whereas cells exposed to the [^3H]FA plus 1 mmol/L unlabeled FA served as positive controls. Disintegrations per minute (DPM) measured in the latter samples (representing nonspecific binding of label) were subtracted from the DPM values from all samples.

ST502 TNBC PDX tumors = assay: In vivo activity against triple negative breast tumors (FIG. 5); set-up: species or system mice
Protocol: as §1
Primary human TNBC model ST502 (2-4 mm in diameter) or primary human TNBC model ST738 (2-4 mm in diameter) were inoculated subcutaneously at the right flank of each mouse. Mice were randomized into experimental groups of 7 mice each and test articles were injected through the lateral tail vein under sterile conditions in a volume of […] of phosphate-buffered saline (PBS).

[2] = test system: intraperitoneal ID8-C115 tumor; assay: Conjugate 5 plus anti-CTLA-4 combination study, survival; format: in vivo, mice; conditions: Conjugate 5 i.v. 0.1 μmol/kg BIW×6 doses; EC1456 i.v. 2 μmol/kg BIW×6 doses, from day 7; anti-CTLA-4 i.p. 250 μg/dose BIW×5 doses from day 11; untreated ~46 days; 5 animals
Protocol: To test the effect of Conjugate 5 alone and in combination with anti-CTLA-4 antibody, ID8-C115 tumor cells (5×10^6 cells per animal in 1% syngeneic mouse serum/folate-deficient RPMI1640 medium) were inoculated intraperitoneally 13 days post the date of arrival and start of the folate deficient diet. […] The anti-CTLA-4 antibody dosing solution was prepared by diluting the stock solution (BioXcell, Clone UC10-4F10-11) to 1.25 mg/mL in PBS, pH 7.4. Anti-CTLA-4 (250 μg/dose) was i.p. administered BIW for a total of 5 doses starting 11 days after the tumor implant. […] Mice were weighed 3 times/week and assessed for any clinical sign of swollen bellies indicative of ascites formation and for the evidence of toxicity such as respiratory distress, mobility, weight loss, diarrhea, hunched posture, and failure to eat. Once the animals developed ascites, they were monitored daily and euthanized when ascites became severe (rounded and walking on tip toes). Healthy animals from the same cohort of mice were used as controls for normal weight gain.

4T1-C12 tumor cells = assay: XTT cell viability assay, 4T1-C12; format: cell-based, mouse; conditions: FRα-positive 4T1-C12, 2 hours exposure, 96 hour chase
Protocol: The FRα− and FRα+ expressing cell lines utilized to evaluate Conjugate 5 activity in-vitro and/or ex-vivo studies were (1) 4T1p, a mouse breast cancer cell line that resembles triple negative breast cancer in humans, (2) 4T1-C12, 4T1p stably transfected with a mouse FRa, and (3) IGROV1, a human ovarian carcinoma cell line that expresses the human FRα. 4T1p and 4T1-C12 cells were grown respectively in a folate-replete or folate-free RPMI1640 medium (Gibco BRL) (FFRPMI) containing 10% heat-inactivated fetal calf serum (HIFCS) and antibiotics, and maintained under a 5% CO2 atmosphere using standard cell culture techniques. IGROV1 cells were grown in the same medium as 4T1-C12.
4T1p and 4T1-C12 tumor cells in 96-well plates (20,000 cells/well) were treated with 10-fold serial dilutions of Conjugate 5 (100 nM) in FFRPMI medium. After a 2 hour exposure, the drug-containing media were replaced and the cells were washed and allowed to incubate further for 96 hours. The cell viability was assessed by adding XTT (2,3-bis(2-methoxy-4-nitro-5-sulfo-phenyl)-2H-tetrazolium-5-carboxanilide) to the culture medium for 2 hours following the manufacturer's instructions. All results were expressed as % absorbance (minus background) relative to the untreated control cells.

How did the “cure (number of mice)” value [1] turn out when `C=C1C[C@H]2C=Nc3cc(OCCCCCOc4cc(N)c(C(=O)N5CC(=C)C[C@H]5C5OCCN5C(=O)OCC(C)(C)SSCCC(=O)NCCNC(=O)CCOCCOCCOCCOCCNC(=O)CCN5C(=O)CC(SC[C@H](NC(=O)[C@H](CC(=O)O)NC(=O)[C@H](CC(=O)O)NC(=O)[C@H](CCCNC(=N)N)NC(=O)[C@H](CC(=O)O)NC(=O)CC[C@H](NC(=O)c6ccc(NCc7cnc8nc(N)[nH]c(=O)c8n7)cc6)C(=O)O)C(=O)O)C5=O)cc4OC)c(OC)cc3C(=O)N2C1` (stereo partly drawn) [Conjugate 5] was run?
The value was 4.

What about the “anti-TAM activity in presence of 500-fold excess of EC0923” value (4T1 TAMs; 254 nmol/kg Conjugate 5 plus 127 μmol/kg EC0923, single i.v. dose) of the same compound?
The value was “not blocked”.

And the “effect against FR− cell populations including CD163-CD11b+ 4T1 TAMs and 4T1 tumor cells” value (4T1 TAMs; 254 nmol/kg, single i.v. dose)?
Its value is “no effect”.

And the “effect on CD163+CD11b+ TAM population in 4T1 tumors” value (4T1 TAMs; single i.v. administration, Conjugate 5 254 nmol/kg, EC0923 127 μmol/kg, tumors harvested four days later, n=3)?
Its value is “significantly decrease”.

And the “DNA crosslinking, reduced form” value (Calf thymus DNA (CT-DNA); treated with DTT)?
The value was “can then crosslink with DNA”.

What about the “DNA crosslinking, intact conjugate” value (Calf thymus DNA (CT-DNA); without DTT) of the same compound?
Its value is “not able to crosslink DNA”.

And the “relative binding affinity toward the folate receptor, fold lower than that of folic acid” value (folate receptor)?
Its value is ~1.9 fold.

What about the “cure (number of mice)” value (ST502 TNBC PDX tumors; 0.3 μmol/kg BIW for two weeks, n=7) of the same compound?
Its value is 7.

What about the “TNBC PDX tumor size compared to untreated control” value (ST502 TNBC PDX tumors; Conjugate 5 0.3 μmol/kg BIW two weeks, EC1456 2.0 μmol/kg BIW two weeks) of the same compound?
Its value is “decreased TNBC PDX tumor size”.

And the median survival time [2]?
The median survival time was ~77 days post tumor implant.

And the “activity in the presence of excess folic acid” value (4T1-C12 tumor cells; excess folic acid)?
The value was “partially reversible”.

What about the IC50 (4T1-C12 tumor cells; read-out: relative IC50, inhibition of cell proliferation) of the same compound?
Its IC50 is ~8.7 nM.
